Active and inactive are the calls of the source.

Here are results for 14 molecules from ChEMBL document CHEMBL1201862, “PubChem BioAssay data set” (2004).

For test [1], the target named is Eukaryotic translation initiation factor 4H (Homo sapiens, UniProt Q15056). Kind of test: human eIF4H binding inhibitors, primary screen, translation initiation inhibitor project, biochemical, uHTS, fluorescence polarization (AID 2012). On the technique in general: Polarisation of emitted light reports the rotation of a fluorescent probe.
For test [2], the target named is Polyadenylate-binding protein 1 (Homo sapiens, UniProt P11940). Kind of test: PABP poly(A) RNA binding inhibitors, primary screen, biochemical, fluorescence polarization, uHTS (AID 2014).
The target in test [3] is T1, Voltage-gated N-type calcium channel alpha-1B subunit/Amyloid beta A4 precursor protein-binding family A member 1 (Homo sapiens, UniProt Q00975+Q02410). The format is protein assay.
Test [4] deals with T1, Voltage-gated N-type calcium channel alpha-1B subunit/Amyloid beta A4 precursor protein-binding family A member 1. The format is protein assay. The source holds these as a separate data set.
In test [5] the target is DNA (cytosine-5)-methyltransferase 1 (Homo sapiens, UniProt P26358). The experiment in a line: DNMT1 methyltransferase inhibitors, confirmation, biochemical, fluorescent molecular beacon (AID 602386). The format is functional.
For test [6], the target named is T2, Carboxy-terminal domain RNA polymerase II polypeptide A small phosphatase 1 (Homo sapiens, UniProt Q9GZU7).
T2 sequence (Q9GZU7 whole entry): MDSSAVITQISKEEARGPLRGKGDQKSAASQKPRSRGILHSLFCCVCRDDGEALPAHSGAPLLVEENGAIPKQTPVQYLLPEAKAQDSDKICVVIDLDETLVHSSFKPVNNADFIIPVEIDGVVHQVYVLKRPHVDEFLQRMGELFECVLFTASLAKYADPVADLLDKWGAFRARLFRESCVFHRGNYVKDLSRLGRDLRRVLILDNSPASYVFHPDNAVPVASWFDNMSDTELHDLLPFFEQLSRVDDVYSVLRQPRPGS
Kind of test: inhibitors of CTDSP1, concentration-response testing, biochemical assay, absorbance-based, actives from ultra-high-throughput screening (AID 540297). The format is functional.

A short description of test [7]: A cytotoxicity screen of small molecule inhibitors of the PhoP region in Salmonella typhi identified in the primary screen. [Related pubchem assays: 1850, 1864, 1985 ]. Type of test: functional.
Test [8] has as its target DNA damage-inducible transcript 3 protein (Mus musculus, UniProt P35639). Type of test: functional, Cricetulus griseus.
The target of the next test is Large T antigen (Simian virus 40, UniProt P03070). The format is functional, Betapolyomavirus macacae.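 Also: Confirmatory-stage PubChem screen for compounds that inhibit SV40 T antigen.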
Test [9] in a line: growth suppression of PTEN-null colon cells, dose response, cell-based, HCT116 PTEN knockout (AID 1047).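 Also: HCT116 colon tumor cells with PTEN knocked out; cells exposed to compound for 60 hours before readout; potency for loss of cell viability measured by luminescence.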 Type of test: functional.
The nature of test [10]: growth suppression of beta-catenin-knockout colon cells, dose response, cell-based, HCT116, human colon tumor (AID 1045).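 Also: HCT116 colon tumor cells with beta catenin knocked out; cells exposed to compound for 60 hours.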 The format is functional.
Test [11] in a line: THP-1 cell cytotoxicity, dose response, cytotoxicity control for non-replicating M. tuberculosis project (AID 489025). Type of test: functional.
The next test is described as follows: cells. Type of test: functional.
Test [12] can be described thus: A Cell Based Secondary Assay To Explore Cytotoxicity of Compounds that Sensitize Mycobacterium Tuberculosis to Beta-Lactam Antibiotics. The format is functional.
Test [13] has as its target T3, Short transient receptor potential channel 4 (Mus musculus, UniProt Q9QUQ5).
T3 sequence (Q9QUQ5 whole entry): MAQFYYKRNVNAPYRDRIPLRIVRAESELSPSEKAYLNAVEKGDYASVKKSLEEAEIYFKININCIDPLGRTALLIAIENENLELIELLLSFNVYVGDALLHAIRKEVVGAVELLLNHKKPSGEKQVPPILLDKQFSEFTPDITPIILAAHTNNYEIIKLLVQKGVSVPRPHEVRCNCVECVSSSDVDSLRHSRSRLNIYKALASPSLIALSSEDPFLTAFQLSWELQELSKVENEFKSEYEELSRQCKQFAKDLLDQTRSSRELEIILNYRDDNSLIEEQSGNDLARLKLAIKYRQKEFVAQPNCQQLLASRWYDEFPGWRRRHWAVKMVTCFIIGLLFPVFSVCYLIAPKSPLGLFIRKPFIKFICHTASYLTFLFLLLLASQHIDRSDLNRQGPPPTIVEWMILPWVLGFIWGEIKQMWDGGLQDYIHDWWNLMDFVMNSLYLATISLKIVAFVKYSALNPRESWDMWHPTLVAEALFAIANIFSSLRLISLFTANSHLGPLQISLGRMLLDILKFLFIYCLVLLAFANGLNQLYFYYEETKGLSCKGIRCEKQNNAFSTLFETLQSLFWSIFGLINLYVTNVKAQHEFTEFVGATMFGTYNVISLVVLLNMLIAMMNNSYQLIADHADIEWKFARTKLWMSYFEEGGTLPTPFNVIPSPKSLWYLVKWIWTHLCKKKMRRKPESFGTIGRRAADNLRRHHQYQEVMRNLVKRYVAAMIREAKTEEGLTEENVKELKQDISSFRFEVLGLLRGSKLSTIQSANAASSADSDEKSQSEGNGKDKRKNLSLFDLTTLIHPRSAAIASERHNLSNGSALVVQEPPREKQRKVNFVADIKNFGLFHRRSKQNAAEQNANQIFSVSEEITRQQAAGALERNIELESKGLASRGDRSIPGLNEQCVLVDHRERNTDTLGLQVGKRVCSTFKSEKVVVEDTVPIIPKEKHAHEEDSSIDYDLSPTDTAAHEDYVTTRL
Kind of test: mouse TRPC4 channel inhibitors, dose response, cell-based, HEK293 TRPC4/mu-opioid, Fluo-4 calcium (AID 434942).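 Also: potency of inhibitors blocking the TRPC4 calcium response.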 Type of test: functional.

In test [14] the target is Neurotensin receptor type 1 (Homo sapiens, UniProt P30989). The format is functional.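 Also: Image-based confirmatory dose-response assay measuring agonist activity at NTR1; NTR1-expressing U2OS osteosarcoma cells imaged for beta-arrestin GFP spot formation; agonist potency where compounds increase beta-arrestin recruitment.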
Test [15] deals with T4, Microphthalmia-associated transcription factor (Homo sapiens, UniProt O75030).
T4 sequence (O75030 whole entry): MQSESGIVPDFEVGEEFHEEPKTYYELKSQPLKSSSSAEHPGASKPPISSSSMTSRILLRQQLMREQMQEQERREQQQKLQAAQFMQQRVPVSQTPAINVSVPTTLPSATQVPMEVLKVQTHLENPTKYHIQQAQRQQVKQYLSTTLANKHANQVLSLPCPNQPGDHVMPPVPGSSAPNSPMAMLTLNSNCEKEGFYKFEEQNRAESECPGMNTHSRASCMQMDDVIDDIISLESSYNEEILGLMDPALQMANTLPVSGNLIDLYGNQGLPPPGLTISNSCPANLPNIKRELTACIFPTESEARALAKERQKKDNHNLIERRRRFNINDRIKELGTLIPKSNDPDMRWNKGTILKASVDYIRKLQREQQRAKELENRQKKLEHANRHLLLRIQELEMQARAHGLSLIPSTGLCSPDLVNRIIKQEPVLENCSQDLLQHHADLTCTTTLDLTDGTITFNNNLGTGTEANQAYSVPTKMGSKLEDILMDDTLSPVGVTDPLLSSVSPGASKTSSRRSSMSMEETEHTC
The experiment in a line: TRPM1 promoter luciferase signal decrease, dose response, MITF inhibitor project, cell-based, SK-MEL-5, cherry-picked, set 3 (AID 493073).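 Also: SK-MEL-5 melanoma cells with luciferase driven by the MITF target TRPM1 promoter.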 Type of test: functional.

Test [16] deals with HEK293. The experiment in a line: NOD1 signaling inhibitors, primary screen, cell-based, luminescence, uHTS (AID 1578). The format is functional. The conditions noted are these: Homo sapiens.
Test [17] concerns HEK293. Kind of test: cells. The format is functional, cell-based. The conditions noted are these: Homo sapiens.
In test [18] the test system is HEK293. The experiment in a line: cells. The format is functional, cell-based. The conditions noted are these: Homo sapiens. The source holds these as a separate data set.
Test [19] has as its target Nucleotide-binding oligomerization domain-containing protein 2 (Homo sapiens, UniProt Q9HC29). The experiment in a line: NOD2 signaling inhibitors, cell-based, luminescence, uHTS, HEK293 (AID 1566). The format is functional.
Test [20] concerns HEK293. Kind of test: NOD2 signaling inhibitors in MDP-stimulated cells, cell-based, uHTS, luminescence (AID 2001). The format is functional. The conditions noted are these: Homo sapiens.
For test [21], the system named is HEK293. The experiment in a line: cells. Type of test: functional, cell-based. The conditions noted are these: Homo sapiens. This is another data set of the same source.
Another test concerns the target T5, Protein skinhead-1 (Caenorhabditis elegans, UniProt P34707).
T5 sequence (P34707 whole entry): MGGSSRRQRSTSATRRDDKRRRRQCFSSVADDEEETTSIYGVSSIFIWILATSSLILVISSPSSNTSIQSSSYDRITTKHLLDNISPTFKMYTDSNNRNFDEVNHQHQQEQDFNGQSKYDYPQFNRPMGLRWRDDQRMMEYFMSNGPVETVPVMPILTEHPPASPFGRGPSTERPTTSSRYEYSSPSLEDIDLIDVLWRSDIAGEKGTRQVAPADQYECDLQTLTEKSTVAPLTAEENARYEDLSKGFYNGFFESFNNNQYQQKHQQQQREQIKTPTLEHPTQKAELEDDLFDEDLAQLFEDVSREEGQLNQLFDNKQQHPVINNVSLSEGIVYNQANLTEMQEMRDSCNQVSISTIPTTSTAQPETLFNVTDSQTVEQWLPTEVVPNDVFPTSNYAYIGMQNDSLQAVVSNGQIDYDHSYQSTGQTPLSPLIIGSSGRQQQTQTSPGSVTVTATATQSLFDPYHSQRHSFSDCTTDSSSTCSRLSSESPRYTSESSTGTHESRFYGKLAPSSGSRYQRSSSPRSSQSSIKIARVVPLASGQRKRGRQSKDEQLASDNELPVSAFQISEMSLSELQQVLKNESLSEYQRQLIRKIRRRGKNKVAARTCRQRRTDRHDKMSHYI
The format is functional.

Chain of Polyadenylate-binding protein 1 (P11940 whole entry): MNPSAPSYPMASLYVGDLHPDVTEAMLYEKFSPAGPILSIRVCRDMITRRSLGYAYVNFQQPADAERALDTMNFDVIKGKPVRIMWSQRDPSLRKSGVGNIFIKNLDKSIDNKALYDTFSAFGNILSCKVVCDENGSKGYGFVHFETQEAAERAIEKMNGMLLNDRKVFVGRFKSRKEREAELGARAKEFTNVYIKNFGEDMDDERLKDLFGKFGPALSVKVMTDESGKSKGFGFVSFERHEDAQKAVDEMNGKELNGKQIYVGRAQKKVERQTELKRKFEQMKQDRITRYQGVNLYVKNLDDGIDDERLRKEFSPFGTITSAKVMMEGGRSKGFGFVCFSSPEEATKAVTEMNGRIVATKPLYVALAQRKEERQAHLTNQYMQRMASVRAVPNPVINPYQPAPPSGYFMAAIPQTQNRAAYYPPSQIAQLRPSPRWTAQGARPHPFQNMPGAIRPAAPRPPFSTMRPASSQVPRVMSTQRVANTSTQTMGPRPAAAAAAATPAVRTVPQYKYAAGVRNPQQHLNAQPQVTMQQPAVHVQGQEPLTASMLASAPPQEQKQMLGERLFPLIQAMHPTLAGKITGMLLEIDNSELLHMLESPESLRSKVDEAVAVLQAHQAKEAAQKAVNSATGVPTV
Chain of DNA damage-inducible transcript 3 protein (P35639 whole entry): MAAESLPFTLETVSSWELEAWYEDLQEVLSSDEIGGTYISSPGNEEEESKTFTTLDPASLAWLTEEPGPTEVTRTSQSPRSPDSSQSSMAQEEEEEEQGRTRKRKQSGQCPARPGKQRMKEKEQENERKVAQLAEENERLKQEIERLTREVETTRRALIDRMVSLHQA
T1 sequence (Q00975 whole entry): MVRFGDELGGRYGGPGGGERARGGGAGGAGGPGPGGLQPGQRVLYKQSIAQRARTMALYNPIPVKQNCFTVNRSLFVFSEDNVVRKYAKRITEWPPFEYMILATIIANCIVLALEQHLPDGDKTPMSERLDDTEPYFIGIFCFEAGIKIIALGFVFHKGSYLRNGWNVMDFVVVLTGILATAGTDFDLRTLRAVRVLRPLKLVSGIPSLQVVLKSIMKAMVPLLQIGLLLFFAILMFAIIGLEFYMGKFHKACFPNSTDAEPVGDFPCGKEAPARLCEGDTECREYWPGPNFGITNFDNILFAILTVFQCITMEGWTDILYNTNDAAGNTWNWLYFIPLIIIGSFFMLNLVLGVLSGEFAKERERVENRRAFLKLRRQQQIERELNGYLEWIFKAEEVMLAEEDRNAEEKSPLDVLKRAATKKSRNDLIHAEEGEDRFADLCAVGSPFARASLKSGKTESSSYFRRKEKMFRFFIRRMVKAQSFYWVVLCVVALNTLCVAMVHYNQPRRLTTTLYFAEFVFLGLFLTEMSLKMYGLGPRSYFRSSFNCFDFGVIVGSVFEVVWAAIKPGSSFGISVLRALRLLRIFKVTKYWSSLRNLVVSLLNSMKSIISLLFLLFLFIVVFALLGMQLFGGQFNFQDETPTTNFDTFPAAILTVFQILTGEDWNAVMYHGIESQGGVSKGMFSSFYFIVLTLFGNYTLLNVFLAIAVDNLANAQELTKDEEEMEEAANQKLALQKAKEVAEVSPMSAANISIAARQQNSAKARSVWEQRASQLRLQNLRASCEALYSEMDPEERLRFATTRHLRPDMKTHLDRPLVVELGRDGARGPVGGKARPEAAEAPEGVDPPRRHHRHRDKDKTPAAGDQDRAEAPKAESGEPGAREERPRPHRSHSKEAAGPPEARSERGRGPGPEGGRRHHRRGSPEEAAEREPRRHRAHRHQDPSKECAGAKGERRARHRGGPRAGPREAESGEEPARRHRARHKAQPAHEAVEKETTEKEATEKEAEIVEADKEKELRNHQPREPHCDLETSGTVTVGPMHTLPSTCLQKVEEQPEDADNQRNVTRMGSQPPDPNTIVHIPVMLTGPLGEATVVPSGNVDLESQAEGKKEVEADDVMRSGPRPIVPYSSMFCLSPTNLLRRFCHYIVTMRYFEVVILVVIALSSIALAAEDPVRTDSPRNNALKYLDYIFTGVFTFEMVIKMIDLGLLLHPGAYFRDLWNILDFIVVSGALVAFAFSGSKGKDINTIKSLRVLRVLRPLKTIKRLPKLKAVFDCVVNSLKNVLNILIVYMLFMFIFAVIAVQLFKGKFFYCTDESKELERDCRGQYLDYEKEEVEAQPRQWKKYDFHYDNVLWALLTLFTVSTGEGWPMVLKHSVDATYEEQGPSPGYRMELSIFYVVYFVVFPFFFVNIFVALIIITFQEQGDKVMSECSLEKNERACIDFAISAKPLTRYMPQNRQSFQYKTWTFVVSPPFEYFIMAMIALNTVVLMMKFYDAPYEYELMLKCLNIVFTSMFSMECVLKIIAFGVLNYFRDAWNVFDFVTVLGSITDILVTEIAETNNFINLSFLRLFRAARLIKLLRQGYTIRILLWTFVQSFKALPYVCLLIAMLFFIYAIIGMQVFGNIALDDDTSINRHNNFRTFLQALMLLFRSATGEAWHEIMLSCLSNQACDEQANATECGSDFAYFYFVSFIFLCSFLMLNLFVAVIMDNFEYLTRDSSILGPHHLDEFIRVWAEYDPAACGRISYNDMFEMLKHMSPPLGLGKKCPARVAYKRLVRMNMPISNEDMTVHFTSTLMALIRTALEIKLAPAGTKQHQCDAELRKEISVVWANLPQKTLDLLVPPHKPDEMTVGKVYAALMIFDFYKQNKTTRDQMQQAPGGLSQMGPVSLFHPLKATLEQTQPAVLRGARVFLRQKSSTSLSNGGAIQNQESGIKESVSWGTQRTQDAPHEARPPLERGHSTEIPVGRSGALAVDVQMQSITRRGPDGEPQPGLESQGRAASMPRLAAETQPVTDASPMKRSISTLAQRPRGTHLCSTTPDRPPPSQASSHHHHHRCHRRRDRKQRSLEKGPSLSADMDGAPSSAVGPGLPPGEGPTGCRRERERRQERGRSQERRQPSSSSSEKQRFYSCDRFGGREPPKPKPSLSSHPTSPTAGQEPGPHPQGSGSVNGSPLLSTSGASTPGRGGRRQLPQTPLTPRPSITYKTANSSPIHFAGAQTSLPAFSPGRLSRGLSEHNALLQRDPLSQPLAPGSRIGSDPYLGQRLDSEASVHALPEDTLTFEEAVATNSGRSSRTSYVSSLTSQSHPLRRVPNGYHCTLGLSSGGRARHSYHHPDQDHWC
T1 sequence (Q02410 whole entry): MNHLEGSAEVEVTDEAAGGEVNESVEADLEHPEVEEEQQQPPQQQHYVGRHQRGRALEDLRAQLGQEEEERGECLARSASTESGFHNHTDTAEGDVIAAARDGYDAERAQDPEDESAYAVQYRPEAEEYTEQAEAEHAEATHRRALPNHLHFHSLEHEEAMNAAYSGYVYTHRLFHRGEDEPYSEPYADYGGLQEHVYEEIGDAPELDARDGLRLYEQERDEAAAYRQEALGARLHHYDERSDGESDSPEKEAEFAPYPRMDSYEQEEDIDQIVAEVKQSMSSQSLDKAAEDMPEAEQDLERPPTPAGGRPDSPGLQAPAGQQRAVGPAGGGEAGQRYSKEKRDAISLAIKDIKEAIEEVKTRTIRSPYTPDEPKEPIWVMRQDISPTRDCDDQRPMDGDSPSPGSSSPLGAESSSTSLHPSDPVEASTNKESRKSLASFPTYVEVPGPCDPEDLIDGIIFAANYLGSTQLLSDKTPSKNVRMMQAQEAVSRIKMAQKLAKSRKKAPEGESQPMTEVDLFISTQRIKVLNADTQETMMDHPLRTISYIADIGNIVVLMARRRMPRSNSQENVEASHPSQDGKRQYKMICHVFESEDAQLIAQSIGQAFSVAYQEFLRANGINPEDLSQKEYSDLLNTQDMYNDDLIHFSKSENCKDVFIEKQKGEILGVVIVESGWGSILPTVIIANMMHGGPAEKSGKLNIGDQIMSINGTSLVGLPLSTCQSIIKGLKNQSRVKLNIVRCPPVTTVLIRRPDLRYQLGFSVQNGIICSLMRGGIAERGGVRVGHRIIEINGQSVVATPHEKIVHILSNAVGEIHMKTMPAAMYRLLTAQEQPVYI
Chain of Large T antigen (P03070 whole entry): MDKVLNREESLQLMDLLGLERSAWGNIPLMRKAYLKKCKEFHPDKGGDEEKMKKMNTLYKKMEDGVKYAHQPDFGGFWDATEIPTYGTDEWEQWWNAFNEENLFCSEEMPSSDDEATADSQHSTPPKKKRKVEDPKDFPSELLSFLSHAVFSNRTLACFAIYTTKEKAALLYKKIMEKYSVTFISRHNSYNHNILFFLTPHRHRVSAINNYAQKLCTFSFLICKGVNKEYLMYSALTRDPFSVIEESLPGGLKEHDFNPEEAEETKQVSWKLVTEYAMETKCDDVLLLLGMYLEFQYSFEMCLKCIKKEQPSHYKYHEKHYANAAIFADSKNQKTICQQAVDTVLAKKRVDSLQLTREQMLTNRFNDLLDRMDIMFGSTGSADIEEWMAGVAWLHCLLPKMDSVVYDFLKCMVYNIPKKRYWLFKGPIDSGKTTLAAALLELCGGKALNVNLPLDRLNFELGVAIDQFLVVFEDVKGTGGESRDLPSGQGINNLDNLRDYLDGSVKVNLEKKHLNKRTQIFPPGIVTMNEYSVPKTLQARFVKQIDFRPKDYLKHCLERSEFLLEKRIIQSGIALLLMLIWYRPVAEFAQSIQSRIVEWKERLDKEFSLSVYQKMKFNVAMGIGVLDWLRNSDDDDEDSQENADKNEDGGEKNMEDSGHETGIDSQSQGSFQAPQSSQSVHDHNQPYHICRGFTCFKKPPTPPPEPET

One may read the IC50 as the point on the concentration scale where inhibition reaches its midpoint. As for `CCn1nc(NC(C)=O)c2cc3cccc(C)c3nc21`, the IC50 in test [1] was > 100 µM (inactive); in [2], 7.59 µM (active).

`O=C(CN1C(=O)S/C(=C\c2ccc(-c3cc(C(=O)O)ccc3Cl)o2)C1=O)Nc1ccc2c(c1)OCO2`: the IC50 in test [3] is > 56.8 µM (not active); in test [4], > 50 µM (inactive); in test [5] it was > 99 µM (inactive).

In the case of `O=C(NC(Cc1ccccc1)c1nc2ccccc2[nH]1)C1CC(=O)N(c2ccc3c(c2)OCCO3)C1` (configuration not stated), the values for the IC50 in test [1], in [2] and in [6] were 56.2 µM (active), 8.72 µM (active) and 41.4 µM (active), respectively.

Usually EC50 stands for the concentration at which the effect is half-maximal. In the case of `COC(=O)c1cc2oc(C)cc2n1CC(=O)Nc1ccc(C)c(C)c1`, the EC50 in test [7] is > 50 µM (active).

Consider `CCc1ccc(OCCNC(=O)c2ccccc2SCc2ccccc2)cc1`, for which the “Absolute IC50 (CHOP)” value in test [8] was determined as 10 µM.

Usually CC50 stands for the concentration giving 50% cytotoxicity. In the case of `Cc1cccc(N2CCN(C(=O)Cn3sc4nc(C)cc(C)c4c3=O)CC2C)c1` (configuration not stated), the IC50 is 16.7 µM (active) in test [3], 18.1 µM (active) at Large T antigen, > 50 µM (inactive) in test [4] and 23.8 µM (active) in “cells”. The EC50 in test [9] and in [10] was 17 µM (active) in each case. The half-maximal cytotoxic concentration (CC50) in test [11] is > 40 µM (active).

With `O=C(c1cccc(C(=O)N2CCN(c3ccc(F)cc3)CC2)c1)N1CCN(c2ccc(F)cc2)CC1`, in test [12], the CC50 was > 40 µM (active). Besides, in [13], the EC50 is 0.841 µM (active).

As for `Cc1c(C(=O)N2CCN(Cc3ccccc3)CC2)sc2ncnc(N3CCOCC3)c12`, the EC50 in test [7] was > 50 µM (active).

Consider `CN1CCc2nc(SCC(=O)Nc3ccc(Cl)cc3)c(C#N)cc2C1`, for which the EC50 in test [7] was > 50 µM (active).

By AC50 is commonly meant the concentration at which the activity in the assay is half-maximal. Regarding `Cn1cc([N+](=O)[O-])c(C(=O)Nc2nc(-c3ccc(Cl)cc3)cs2)n1`, the EC50 in [9] is 0.596 µM (active); in test [10], 0.523 µM (active); in test [14], 3.8 µM (active). In test [15], the AC50 is 10.5 µM (active).

As for `COc1ccc(C2=NN(C(=O)c3ccco3)C(c3cc4ccccc4nc3Cl)C2)cc1` (configuration not stated), the “Absolute IC50 (CHOP)” value in [8] stood at 10 µM.

Consider `COc1ccc2c(c1)c(=O)oc1c(C)c(OCc3ccc(C(=O)O)cc3)ccc12`, for which the EC50 (in the test with HEK293 [16]; in test [19]) was > 20 µM (inactive) each time. Moreover, the IC50 in the test with HEK293 [17] is 14.4 µM (active); in the test with HEK293 [18], > 20 µM (inactive); in the test with HEK293 [20], > 20 µM (inactive); with HEK293 [21], > 20 µM (inactive); in test [6], 2.01 µM (active).

Turning to `CCN1C(NCCc2ccccn2)=N[C@@H](c2cccc(F)c2)C(C(=O)OC)=C1C`, the IC50 in test [1] is > 100 µM (inactive); in test [2] it was 13.4 µM (active).

With `FC(F)(F)c1cc(-c2cccs2)nc(-n2cc(Br)cn2)n1`, the “Absolute IC50 (CHOP)” value in [8] worked out at 10 µM. Moreover, the IC50 at Protein skinhead-1 was > 100 µM (inactive).
